# Laboratory results from US20240316038A1, “APOL1 INHIBITORS AND METHODS OF USE” (Maze Therapeutics, Inc., priority 2021, published 2024).
# Experiments:
# [1] = target: T1, APOL1 G2 (Homo sapiens, UniProt O14791, DEL388-389); assay: Rescue of HEK293 cell death caused by overexpression of APOL1 (CellTiter-Glo luminescence), HEK293/T-REx APOL1 G2/clone #2; type: cell-based; conditions: reversal of cell death caused by overexpression of APOL1; geometric mean of at least 2 assay runs, † = single assay run (technical duplicate)
# T1 construct: expressed in transfected cells; host or cells: HEK293 T-REx clonal lines: HEK T-REx/GCaMP6f/APOL1 G2 K6.3 in A1, HEK293/T-REx APOL1 G2/clone #2 in A2
# T1 sequence (O14791 with tags, fused parts or gaps DEL388-389): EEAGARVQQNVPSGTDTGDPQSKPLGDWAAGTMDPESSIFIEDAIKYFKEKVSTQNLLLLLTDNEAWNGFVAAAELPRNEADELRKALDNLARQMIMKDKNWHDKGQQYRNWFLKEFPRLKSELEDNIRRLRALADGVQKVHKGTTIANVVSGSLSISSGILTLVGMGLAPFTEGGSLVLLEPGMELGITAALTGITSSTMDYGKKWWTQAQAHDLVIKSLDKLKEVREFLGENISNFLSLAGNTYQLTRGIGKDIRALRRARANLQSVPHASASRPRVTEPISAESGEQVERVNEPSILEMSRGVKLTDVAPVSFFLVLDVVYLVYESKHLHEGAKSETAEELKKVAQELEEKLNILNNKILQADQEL
# Method: A HEK293 clonal cell line overexpressing APOL1 G2 (HEK293/T-REx APOL1 G2/clone #2) was maintained in 1×DMEM-GlutaMax (Gibco, 10569-010) media with 10% tetracycline-free FBS (Takara Bio USA, 631101), 5 μg/mL Blasticidin (Gibco, A1113903), and 100 μg/mL Zeocin (Invitrogen, R25001) in T75 flasks. In preparation for the assay, this media was aspirated and 2 mL of prewarmed TrypLE Express (Gibco, 12605-010) was added to a flask to detach cells. The flask was then incubated (humidified, 37° C. with 5% CO2) for 3-5 minutes. Afterwards, 8 mL of prewarmed cell assay media (lx DMEM-GlutaMax media with 10% tetracycline-free FBS) was added to the trypsinized cells. The suspension was gently mixed, and cells were counted using a Countess Cell Counting Chamber (Invitrogen). The suspension was diluted using cell assay media to generate a working stock solution (166,667 cells/mL). Using a MultiDrop Combi (Thermo Electron Corp), 30 μL (final cell density=5,000 cells/well) of the working stock solution was dispensed into each well of white 384-well assay ready plates (Nunc™, 164610) containing 6 ng/mL doxycycline, to induce APOL1 expression, and compound. All compounds were plated in a duplicate 8-point dilution series that consisted of 3-fold stepwise dilutions (0.5% DMSO final). Assay plates were incubated (humidified, 37° C. with 5% CO2) for 17 hours. After the incubation, the plates were equilibrated at room temperature for 1 hour. Next, 15 μl of CellTiter-Glo® reagent (Promega, G7570) was added to each well using a MultiDrop Combi. Plates were placed on an orbital shaker (500 rpm) for 5 minutes to induce cell lysis and then incubated at room temperature for 10 minutes. Luminescence was measured on an Envision plate reader. Collaborative Drug Discovery software was utilized for graphing data. Plots were generated using a four parameter logistic curve fit.
# Table B2 below provides the results from this experiment. Unless otherwise specified, EC50 values are reported as the geometric mean of at least 2 assay runs on separate days. Each run represents the average of a technical replicate, where each compound was assayed twice in the same plate. A superscript t symbol indicates a value from the average of a technical replicate from a single assay run, where each compound was assayed twice in the same plate. Compounds in Table B2 are referred to by the corresponding Compound Number in Table 1, which is also referred to in the synthetic examples. When one or more of the numbered compounds are identified by stereochemistry (for example, (R)- or (S)—), the specific stereoisomer for which data is provided in Table B2 may be identified by the elution order of such compound as described in the synthetic examples. To illustrate, Compound 2 is the first-eluting enantiomer of step 4 of Example 1 and Compound 3 is the second-eluting enantiomer of step 4 of Example 1. Further, by way of illustration, Compound 27 is the first-eluting enantiomeric mixture in step 4 of Example 7 and Compound 28 is the second-eluting enantiomeric mixture in step 4 of Example 7. Then, Compound 27 is separated into Compound 29 (the first-eluting enantiomer) and Compound 30 (the second-eluting enantiomer) in Example 8, and Compound 28 is separated into Compound 31 (the first-eluting enantiomer) and Compound 32 (the second-eluting enantiomer) in Example 8. Absolute stereochemistry of such compounds may be identified by methods known in the art.
# Rescue EC50 values reported in Table B2 below represent the half-maximal effective concentration for reversal of cell death caused by overexpression of APOL1.
# [2] = target: T1, APOL1 G2; assay: APOL1 calcium transport inhibition assay (GCaMP6f calcium influx, FLIPR) in HEK T-REx/GCaMP6f/APOL1 G2 K6.3 cells; type: cell-based; conditions: inhibition of APOL1-mediated calcium influx; geometric mean of at least 2 assay runs, † = single assay run (technical duplicate)
# Method: A HEK293 clonal cell line was generated to stably express GCaMP6f, a genetically encoded calcium indicator, and inducibly express APOL1 G2 (HEK T-REx/GCaMP6f/APOL1 G2 K6.3). Cells were maintained in the following standard complete medium: DMEM with 4.5 g/L glucose and sodium pyruvate (BioWhittaker, Lonza, BE12-614F), supplemented with 10% FBS Performance Plus (Gibco, 16000044), 1% penicillin-streptomycin (BioWhittaker, DE17-602E), 2 mM ultraglutamine-1 (BioWhittaker cat. BE 17-605/U1), 50 μg/mL Zeocin (InvivoGen, ant-zn), 2.5 μg/mL Blasticidin (InvivoGen, ant-bl-5), and 25 μg/mL Hygromycin (InvivoGen, ant-hg). Standard propagation conditions consisted of plating 9×10^6, 4×10^6, 2×10^6 cells in a T225 flasks to be processed after 2, 3, or 4 days, respectively.
# A source plate was generated containing 20 serially diluted compounds in DMSO (duplicate 8-point dose response). Next, 0.8 μL of compounds were transferred from the source plate to a destination plate prefilled with 79.2 μL of Ca^2+ free Tyrode's buffer (130 mM NaCl, 5 mM KCl, 1 mM MgCl2, 5 mM NaHCO3, 20 mM HEPES at pH 7.4). The destination plate was placed on a plate shaker (5 seconds at 2000 rpm) to mix. […] All transfer and mixing steps were conducted with an CyBi®-Well dispenser.
# Cells were split by gently washing with DPBS (Euroclone, ECB4004L), followed by a 5-minute incubation (humidified, 37° C. with 5% CO2) with trypsin-EDTA solution (Euroclone, ECB3052D). Detached cells were diluted with standard complete medium without selective agents, counted, and plated in a 384 MTP microplate (GR4332CPL, Twin Helix) (10,000 cells/well in 25 μl/well) using a MATRIX WellMate dispenser. Plates were placed into a humidified incubator (37° C. with 5% CO2) overnight. The following day, 20 μL of doxycycline (Sigma, D9891) at 20 ng/mL in standard complete medium was added to cells with a CyBi @Drop dispenser to induce APOL1 G2 expression. After a 6-hour incubation (humidified, 37° C. with 5% CO2), cells were washed 3 times with Ca^2+ free Tyrode's Buffer (130 mM NaCl, 5 mM KCl, 1 mM MgCl2, 5 mM NaHCO3, 20 mM HEPES at pH 7.4) using a BIOTEK Microplate washer, such that 10 μL of buffer remained in each well after the final wash. Assay plates were then stored at room temperature for 10 minutes. Next, 10 μL of diluted compounds were transferred to the assay plate from the 2× compound plate using a CyBi®-Well dispenser. Compound incubation was then carried out at room temperature for 10 minutes. The assay plate was transferred to the […] and 20 μL of 10 mM Ca^2+ (final concentration=5 mM) Tyrode's buffer was injected.
# Table B1 below summarizes the data from this experiment. Unless otherwise specified, AC50 and values are reported as the geometric mean of at least 2 assay runs on separate days. Each run represents the average of a technical replicate, where each compound was assayed twice in the same plate. A superscript † symbol indicates a value from the average of a technical replicate from a single assay run, where each compound was assayed twice in the same plate.
# The AC50 values in Table B1 below reflect the compound's ability to prevent calcium influx by inhibiting APOL1. […] Compounds in Table B1 are referred to by the corresponding Compound Number in Table 1, which is also referred to in the synthetic examples. When one or more of the numbered compounds are identified by stereochemistry (for example, (R)- or (S)—), the specific stereoisomer for which data is provided in Table B1 may be identified by the elution order of such compound as described in the synthetic examples. To illustrate, Compound 2 is the first-eluting enantiomer of step 4 of Example 1 and Compound 3 is the second-eluting enantiomer of step 4 of Example 1. Further, by way of illustration, Compound 27 is the first-eluting enantiomeric mixture in step 4 of Example 7 and Compound 28 is the second-eluting enantiomeric mixture in step 4 of Example 7. […]
Compound,AC50 [2],EC50 [1]
"CC1CNC(COc2ccc(S(C)(=O)=O)cc2)CN1CCc1cccc(Cl)c1 (single isomer, unassigned) [Compound 213, rac-trans or cis-(2R,5S)-1-[2-(3-chlorophenyl)ethyl]-5-[(4-methanesulfonylphenoxy)methyl]-2-methylpiperazine]",877 nM,964 nM
"CC(C)(Cc1cccc(Cl)c1)NC[C@@H](O)COc1ccc(S(C)(=O)=O)cc1 [Compound 97, (R)-1-((1-(3-chlorophenyl)-2-methylpropan-2-yl)amino)-3-(4-(methylsulfonyl)phe-noxy)propan-2-ol]",314 nM,460 nM
"CS(=O)(=O)c1ccc(CCC2CCCN(CCc3cccc(Cl)c3)C2)cc1 (single isomer, unassigned) [Compound 41, (R) or (S)-1-(3-chlorophenethyl)-3-(4-(methylsulfonyl)phenethyl)piperidine]",2110 nM,2820 nM
"CN(c1ccc(OC[C@@H](O)CN[C@H]2C[C@H](c3cccc(Cl)c3)C2)cc1)S(C)(=O)=O [Compound 65, N-(4-((S)-3-((trans-3-(3-chlorophenyl)cyclo-butyl)amino)-2-hydroxypropoxy)phe-nyl)-N-methylmethanesulfon-amide]",258 nM,955 nM
"CS(=O)(=O)c1ccc(CCC2CCCN(CCc3cccc(Cl)c3)C2)cc1 (stereo not drawn) [Compound 39, 1-(3-chlorophenethyl)-3-(4-(methylsulfonyl)phenethyl)piperidine]",249 nM,904 nM

# More lines, main results first:
AC50 [2],Compound,EC50 [1]
340 nM,"C[C@@]1(O)CN(CCc2cccc(Cl)c2)C[C@H]1COc1ccc(S(C)(=O)=O)cc1 (single isomer, unassigned) [Compound 207, (3S,4S or 3R,4R)-1-[2-(3-chlorophenyl)ethyl]-4-[(4-methanesulfonylphenoxy)methyl]-3-methylpyrrolidin-3-ol]",933 nM
898 nM,"C[C@]1(O)CN(CCc2cccc(Cl)c2)C[C@H]1COc1ccc(S(C)(=O)=O)cc1 (single isomer, unassigned) [Compound 210, (3S,4R or 3R,4S)-1-[2-(3-chlorophenyl)ethyl]-4-[(4-methanesulfonylphenoxy)methyl]-3-methylpyrrolidin-3-ol]",3120 nM
1230 nM,"CC(CN1C[C@@H](COc2ccc(S(C)(=O)=O)cc2)C[C@H]1C)c1cc(Cl)cc(C#N)c1 (single isomer, unassigned) [Compound 142, 3-chloro-5-[(2R or 2S)-1-[(2R, 4S)-4-[(4-meth-anesulfonyl-phenoxy)meth-yl]-2-methyl-pyrrolidin-1-yl]-propan-2-yl]-benzonitrile]",131 nM
434 nM,"C[C@H]1CN(CCc2cccc(Cl)c2)C[C@@H]1COc1ccc(N(C)S(C)(=O)=O)cc1 (single isomer, unassigned) [Compound 47, N-(4-(((3R,4R) or (3S,4S)-1-(3-chlorophenethyl)-4-methylpyrrolidin-3-yl)methoxy)phenyl)-N-methylmethanesulfonamide]",516 nM
423 nM,"Cc1c(C#N)cc(Cl)cc1CCN1C[C@@H](COc2ccc(S(C)(=O)=O)cc2)[C@H](C)C1 [Compound 144, 5-chloro-3-{2-[(3S,4S)-3-[(4-methanesulfon-ylphenoxy)meth-yl]-4-methyl-pyrrolidin-1-yl]-ethyl}-2-methyl-benzonitrile]",256 nM
3840 nM,"COC1CCN(CCc2cccc(Cl)c2)CC1COc1ccc(S(C)(=O)=O)cc1 (single isomer, unassigned) [Compound 37, (3R,4R) or (3S,4S) or (3R,4S) or (3S,4R)-1-(3-chlorophenethyl)-4-methoxy-3-((4-(methylsulfonyl)phenoxy)methyl) piperidine]",> 6150 nM
721 nM,"C[C@@H]1CN(CCc2cccc(Cl)c2)C[C@@H]1COc1ccc(S(C)(=O)=O)cc1 (racemic) [Compound 150, rac-cis-1-[2-(3-chlorophenyl)-ethyl]-3-[(4-methanesulfon-ylphenoxy)meth-yl]-4-methyl-pyrrolidine]",1470 nM
